Assay results published in US20130197043A1, “USE OF THE FETAL REPROGRAMMING OF A PPAR AGONIST” (SNU R&DB FOUNDATION, priority 2010, published 2013).

Experiments:
[1] = test system: slow muscle fibers in the gastrocnemius muscle; assay: Muscle fiber type analysis (muscle colour, metachromatic staining, slow type MHC immunostaining); assay type: in vivo, mice
From the text: The slow muscle fiber has a lot of myoglobin, which is oxygen transfer protein, and thus appears redder than the fast muscle. When the skin of the fetus was removed and the muscle thereof was observed, it may be seen that administered mice group had redder muscle (FIGS. 7A and 7B). In order to confirm whether or not slow muscle fiber generation was increased due to the administration material (CMDD1111), hind legs thereof were resected and then frozen in OCT. Frozen muscle tissues were cut into […] sections by using a freezing cryotome, and mounted on slides, which was then subjected to metachromatic staining. The slow muscle fiber was stained darker blue than the fast muscle by the metachromatic staining. […] Muscle fibers may be discernable even by immunostaining using an isoform antibody of the myosin heavy chain (MHC). The present inventors conducted immunostaining using the slow type MHC in order to confirm whether or not slow muscle fibers were increased by the administration material (CMDD1111).

primary cultured myotube = assay: Primary cell culture and real-time PCR gene expression analysis; assay type: cell-based, mouse; conditions: 300 nM, real-time PCR
Method: However, it has not been reported that the PPARs response element (PPRE) is present at promoters of these three genes. Therefore, the present inventors resected the muscle of the mouse with the removal of PPAR δ gene and conducted primary culture, in order to verify whether or not the increases in expressions of the above three genes are PPAR δ-dependent. After hind legs of a five-day-old fetus was resected, primary culture was conducted by the same method as developed by Rando (Rando et al, J. Cell. Biol., 1994, 125, 1275-1287). Myoblast, after being cultured, was transferred to a 6-well plate, and then differentiated into myotube while being treated with 300 nM of PPAR δ agonist (CMDD1111). The differentiated myotube was further treated with 300 nM of PPAR δ agonist (CMDD1111) for 2 days, and then total RNA was extracted by using a TRIzol reagent (Gibco). The extracted RNA was subjected to reverse transcription, to synthesize cDNA, which was then used as a template for real-time PCR analysis.

[2] = test system: gene expression in muscle; assay: Gene expression analysis using real-time PCR in fetal-reprogrammed mice; assay type: in vivo
Method: A gene expression analysis experiment using the real-time PCR was conducted to further verify Miroarray analysis results. As for mouse group subjected to fetal reprogramming by administration of PPAR δ agonist (CMDD1111) during a muscular development period, there were increases in expression of core regulators for fatty acid oxidation and thermogenesis, such as carnitine palmitoyl transferase 1a (CPT-1a: 1.5 fold), uncoupling protein 3 (UCP3: 4.2 fold), acyl Co-A synthetase (ACSL: 1.4 fold), acyl Co-A dehydrogenase (ACAD10: 2.0 fold), and NDUFA12 (1.3 fold). In addition, there was a remarkable increase in expression of Adiponectin (ADIPOQ: 2.5 fold), which are commonly expressed in the slow muscle fiber and has been known to increase fatty acid oxidation to improve diabetes (FIG. 9).

[3] = test system: leptin receptor-deficient mouse (db/db); assay: Glucose tolerance test in type II diabetes mouse model after fetal reprogramming; assay type: in vivo; conditions: homo type male db/db fetuses; mother dosed only during lactation
Method: The present researchers have checked the fetal reprogramming effect of PPAR δ by using a leptin receptor-deficient mouse (db/db). After hetero type female and male mice were bred, the PPAR δ agonist (CMDD1111) was administered to the female mice only during the lactation period. The glucose tolerance test (GTT) was conducted using only homo type male fetuses having induced diabetes through gene analysis and blood glucose analysis.

[4] = Maternal treatment: side effects, fetal body weight, growth, skeleton staining; assay type: in vivo, mice
Method: The present inventors used a method of administering a PPAR δ agonist to a pregnant mother (maternal treatment) in order to investigate the role of fetal reprogramming of PPAR δ during mammalian development. For the fetal reprogramming, the PPAR δ agonist was orally administered to pregnant mice at a concentration of 10 mg/kg every day, and a specific experiment method was summarized in FIG. 1.
Fertile female mice and male mice were bred, and then pregnancy or not was checked by plug confirmation. CMDD1111 was orally administered to pregnant female mice at a concentration of 10 mg/kg once per day every day for six weeks (gestation and lactation periods). Side effects due to the administered material were not observed during the gestation period. The weight of a fetus group administered with vehicle during the gestation period was 1.33±0.11 g, and the weight of a fetus group administered with CMDD1111 was 1.37±0.09 g. The weight difference between the two groups was not shown (FIG. 3). In addition, growth inhibition or promotion due to the administered material was not observed in the comparison results of growth rate of fetus for 3 weeks (FIG. 4). There was no difference in body weight between the two groups as adults (FIG. 5). Deformity due to the administered material was not observed in the skeleton staining results using Alizaren red S and Alician blue dye (FIG. 6).

[5] = fetal-reprogrammed mouse muscle

SMILES: Cc1cc(SC(Cc2ccccc2)c2sc(-c3ccc(C(F)(F)F)cc3)nc2C)ccc1OCC(=O)O (centres unmarked) [CMDD1111]
- muscle colour after skin removal ([1]; fetal reprogramming, maternal 10 mg/kg): redder muscle
- muscle fibers responsive to slow type MHC, immunostaining ([1]; gastrocnemius muscle): increased
- slow (dark blue) muscle fibers, metachromatic staining ([1]; gastrocnemius muscle): increasingly generated
- expression of ATP2A2 (primary cultured myotube): 4.3 fold
- expression of CPT-1 (primary cultured myotube): 1.5 fold
- expression of PDK4 (primary cultured myotube): 2.2 fold
- expression of PLN (primary cultured myotube): 1.7 fold
- expression of RYR (primary cultured myotube): 2.2 fold
- expression of TNNI3 (primary cultured myotube): 1.7 fold
- expression of Adiponectin (ADIPOQ) [2, 5]: 2.5 fold
- expression of CaMKII B [2, 5]: 4.5 fold
- expression of CaMKII D [2, 5]: 3.2 fold
- expression of HDAC4, decreased by [2, 5]: 0.6 fold
- expression of NDUFA12 [2, 5]: 1.3 fold
- expression of PGC-1α [2, 5]: 1.6 fold
- expression of acyl Co-A dehydrogenase (ACAD10) [2, 5]: 2.0 fold
- expression of acyl Co-A synthetase (ACSL) [2, 5]: 1.4 fold
- expression of carnitine palmitoyl transferase 1a (CPT-1a) [2, 5]: 1.5 fold
- expression of uncoupling protein 3 (UCP3) [2, 5]: 4.2 fold
- expression of ATP2A2 ([2]; versus control group): 2.2 fold
- expression of MYH6 ([2]; versus control group): 6.8 fold
- expression of My17 ([2]; versus control group): 4.8 fold
- expression of RYR2 ([2]; versus control group): 2.2 fold
- expression of RYR3 ([2]; versus control group): 3.6 fold
- expression of TNNI3 ([2]; versus control group): 5.8 fold
- expression of phospholamban ([2]; versus control group): 3.2 fold
- glucose tolerance (GTT) [3]: improved
- growth inhibition or promotion (growth rate of fetus) ([4]; 3 weeks): not observed
- deformity in skeleton staining ([4]; Alizaren red S and Alician blue dye): not observed
- body weight versus vehicle group ([4]; as adults): no difference
- side effects due to the administered material ([4]; gestation period, 10 mg/kg oral once per day): not observed
- weight of fetus group ([4]; immediately after birth, mother 10 mg/kg during gestation): 1.37 ± 0.09 g
